Data set [1] concerns the target T1, CD45 (Homo sapiens, UniProt P08575).
T1 construct: incubating the cytosolic portion of CD45 with the compounds and p-nitrophenyl phosphate (pNPP); purchased BIOMOL (Plymouth Meeting, Pa.)
T1 sequence (P08575 599-1306 limits assumed): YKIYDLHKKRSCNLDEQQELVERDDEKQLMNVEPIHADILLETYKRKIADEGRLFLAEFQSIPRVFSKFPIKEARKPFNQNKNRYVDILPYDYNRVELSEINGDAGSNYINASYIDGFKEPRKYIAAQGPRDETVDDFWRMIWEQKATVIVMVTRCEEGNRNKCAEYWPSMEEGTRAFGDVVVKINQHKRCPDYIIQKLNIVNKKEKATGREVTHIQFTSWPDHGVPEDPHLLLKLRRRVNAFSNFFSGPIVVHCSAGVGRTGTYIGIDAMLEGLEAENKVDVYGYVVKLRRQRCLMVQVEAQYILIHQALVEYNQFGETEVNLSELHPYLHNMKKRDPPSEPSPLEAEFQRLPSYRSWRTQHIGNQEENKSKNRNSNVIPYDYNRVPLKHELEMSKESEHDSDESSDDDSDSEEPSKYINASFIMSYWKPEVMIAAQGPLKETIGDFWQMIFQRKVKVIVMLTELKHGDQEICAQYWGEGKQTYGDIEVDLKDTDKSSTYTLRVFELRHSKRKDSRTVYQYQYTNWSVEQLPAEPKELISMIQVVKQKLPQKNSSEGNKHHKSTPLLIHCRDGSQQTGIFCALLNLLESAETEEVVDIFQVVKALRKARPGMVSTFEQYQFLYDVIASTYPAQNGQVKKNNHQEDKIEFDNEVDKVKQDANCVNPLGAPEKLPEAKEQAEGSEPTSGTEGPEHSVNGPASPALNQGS
Briefly: Phosphatase assay using pNPP as substrate. In kind it is biochemical. The settings on record: CD45 phosphatase, pNPP substrate, pH 7.0; read-out: pNPP IC50. As to the method:
Phosphatase assay using pNPP as substrate:
CD45 enzyme was obtained from BIOMOL (Plymouth Meeting, Pa.). Phosphatase activity was assayed in a buffer containing final concentrations of 25 mM imidazole at pH 7.0, 50 mM NaCl, 2.5 mM ethylenediaminetetraacetic acid (“EDTA”), 5 mM dithiothreitol (“DTT”) and 10 μg/mL bovine serum albumin (“BSA”) using pNPP as a substrate.

The nature of data set [2]: Cytotoxicity assay (Calcein-AM uptake). The settings on record: human, PHA-expanded T-cell lymphoblasts from PBMC.
Procedure: Calcein-AM (Molecular Probes. Eugene, Oreg.) uptake, as a quantitative measure of cell viability, was used to evaluate the toxic effect of compounds on T cells.
The T-cell lymphoblasts were purified by separation over Lymphoprep, plated at 2×10^5/well in a round bottom 96-well plate containing RPMI with compound and incubated overnight at 37° C. in an incubator containing 5% CO2. The dilution scheme and culture media were the same as those used in the T-cell proliferation assay. After the incubation period, cells were washed with Dulbecco's phosphate-buffered saline (D-PBS) and incubated with 1 μM Calcein-AM for 30-45 mim in D-PBS as described in the technical sheet provided with The LIVE/DEAD Viability/Cytotoxicity Kit from Molecular Probes.
For data set [3], the system named is T cells (PBMC). Briefly: cells. In kind it is cell-based, human. The note with it: human PBMC, OKT3 30 ng/mL, [3H]thymidine; read-out: T cell prolif. IC50. The method, then: Cell isolation and T cell proliferation assay:
Whole blood was obtained from healthy human blood donors. Peripheral blood mononuclear cells (“PBMC”) were isolated using Lymphoprep density-gradient centrifugation (Nycomed Amersham, Oslo, Norway), washed, counted and resuspended at 2×10^6 cells/mL in RPMI 1640 medium containing glutamine, 0.1 mg/mL gentamycin and 10% heat inactivated human serum. PBMC were transferred to 96-well plates (2×10^5 cells/well) containing compound or vehicle control, with the final concentration of DMSO not to exceed 0.3%, and incubated for 1 hour before addition of the activating anti-CD3 antibody, OKT3 (30ng/mL). After 24 hours in culture, the cells were pulsed with [^3H]thymidine (1 μCi/well) overnight and harvested the next day onto 96-well Packard GF/C filter plates using a Packard Cell Harvester (Packard Instruments, Meriden, Conn.). The filter plate was dried, the bottom of the plate sealed, 25 μL of Microscint 20 scintillation fluid added to each well, the top of the plate sealed with TopSeal-A, and the plate counted on a Packard TopCount. The data from the TopCount is transferred into Excel 5 (Microsoft, Redmond, Wash.) and formatted for EC50 determination using Prism software (GraphPad Software, San Diego, Calif.).

Data set [4] has as its target T1, CD45. Briefly: Phosphatase assay using lck 10-mer as substrate. The class given is biochemical. The note with it: CD45 phosphatase, lck carboxy-terminal peptide TEGQpYQPQP substrate, pH 7.2; read-out: Ick IC50. As to the method: Phosphatase assay using lck 10-mer as substrate:
Phosphatase activity was assayed in 96 well plates in a buffer containing final concentrations of 25 mM HEPES at pH 7.2, 5 mM DTT and 10 μg/mL BSA using the lck carboxy-terminal peptide TEGQpYQPQP as the substrate (Cho, H., Krishnaraj, R., Itoh, M., Kitas, E., Bannwarth, W., Saito, H., Walsh, C. T. 1993. Substrate specificities of catalytic fragments of protein tyrosine phosphatases (HPTPb, LAR, and CD45) toward the phosphotyrosylpeptide substrates and thiophosphotyrosylated peptides as inhibitors. Protein Science 2:977-984). Compounds were tested in a range from 30 to 0.01 μM in a final concentration of 5% DMSO. Enzyme was incubated with substrate with or without compound, at room temperature for 1.5 h. At the end of the incubation period, BIOMOL “Green Reagent” (BIOMOL, Plymouth Meeting, Pa.) was added to each well, the plates incubated at room temperature for 30 min and absorbance read at 620 nm.

As usually defined, the IC50 is the midpoint of a concentration-inhibition curve. Broadly, the CC50 is the concentration that lowers cell viability or growth by half. For the compound `CC(C)CNC(=O)[C@H](CCC(N)=O)NC(=O)CNC(=O)c1ccc2c(c1)-c1ccccc1C(=O)C2=O` [Example 23], the 50% inhibitory concentration (IC50) in data set [1] was determined as 1.1 µM; in data set [3], 20 µM; in data set [4] it was 3 µM. In addition, the CC50 in data set [2] is more than 30 µM.

For `COC(=O)CCC(=O)Nc1cccc2c1-c1ccccc1C(=O)C2=O` [Example 63, N-(9,10-Dioxo-9,10-dihydro-phenanthren-4-yl)-succinamic Acid Methyl Ester], the IC50 is 0.7 µM in data set [1], 1.2 µM in data set [3] and 2.6 µM in data set [4]. Besides, the CC50 in data set [2] is 8 µM.

With `COC(=O)CCCCCCC(=O)Nc1ccc2c(c1)C(=O)C(=O)c1cccc([N+](=O)[O-])c1-2` [Example 64, 7-(5-Nitro-9,10-dioxo-9,10-dihydro-phenanthren-2-ylcarbamoyl)-heptanoic Acid Methyl Ester], the IC50 was 1.1 µM in data set [1], 4 µM in data set [3] and more than 30 µM in data set [4]. In data set [2], the CC50 is 14 µM.

`COC(=O)CCCC(=O)Nc1ccc2c(c1)C(=O)C(=O)c1cccc([N+](=O)[O-])c1-2` [Example 65, 4-(5-Nitro-9,10-dioxo-9,10-dihydro-phenanthren-2-ylcarbamoyl)-butyric Acid Methyl Ester]: the results for the IC50 in data set [1], in data set [3] and in data set [4] were 1.1 µM, 0.6 µM and 3.1 µM, respectively. For the same compound, the CC50 in data set [2] was 15 µM.

For `COC(=O)CCC(=O)Nc1ccc2c(c1)C(=O)C(=O)c1cccc([N+](=O)[O-])c1-2` [Example 66, N-(5-Nitro-9,10-dioxo-9,10-dihydro-phenanthren-2-yl)-succinamic Acid Methyl Ester], the figures for the IC50 in data set [1], in data set [3] and in data set [4] were 0.9 µM, 3.5 µM and 1.8 µM, respectively. For the same compound, the cytotoxic concentration (CC50) in data set [2] was 13 µM.

Take `COC(=O)CCCC(=O)Nc1cccc2c1-c1ccccc1C(=O)C2=O` [Example 67, 4-(9,10-Dioxo-9,10-dihydro-phenanthren-4-ylcarbamoyl)-butyric Acid Methyl Ester]: the figures for the IC50 in data set [1], in data set [3] and in data set [4] were 1 µM, 0.8 µM and 2.2 µM, respectively. Also, the CC50 in data set [2] was 4 µM.

As to `COC(=O)CCCCCCC(=O)Nc1cccc2c1-c1ccccc1C(=O)C2=O` [Example 68, 7-(9,10-Dioxo-9,10-dihydro-phenanthren-4-ylcarbamoyl)-heptanoic Acid Methyl Ester], the half-maximal inhibitory concentration (IC50) in data set [1] came to 1 µM; in data set [3], 1.8 µM; in data set [4], 3.2 µM. Also, the CC50 in data set [2] was 7.5 µM.

In the case of `COC(=O)CCCCCCCCC(=O)Nc1cccc2c1-c1ccccc1C(=O)C2=O` [Example 69, 9-(9,10-Dioxo-9,10-dihydro-phenanthren-4-ylcarbamoyl)-nonanoic Acid Methyl Ester], the IC50 in data set [1] was 0.6 µM; in data set [3] it was 4.6 µM; in data set [4] it was 4.8 µM. Besides, the CC50 in data set [2] is 14 µM.

For `COC(=O)CCCC(=O)Nc1ccc2c(c1)C(=O)C(=O)c1ccccc1-2` [Example 70, 4-(9,10-Dioxo-9,10-dihydro-phenanthren-2-ylcarbamoyl)-butyric Acid Methyl Ester], the IC50 was 0.4 µM in data set [1], 0.5 µM in data set [3] and 4.7 µM in data set [4]. In addition, the CC50 in data set [2] was 3 µM.

For `COC(=O)CCC(=O)Nc1ccc2c(c1)C(=O)C(=O)c1cccc(NC(=O)CCC(=O)OC)c1-2` [Example 73, N-[5-(3-Methoxycarbonyl-propionylamino)-9,10-dioxo-9,10-dihydro-phenanthren-2-yl]-succinamic Acid Methyl Ester], the IC50 amounted to 0.5 µM in data set [1], 5 µM in data set [3] and 3 µM in data set [4]. In addition, the CC50 in data set [2] was 11 µM.

On to `COC(=O)CCCC(=O)Nc1ccc2c(c1)C(=O)C(=O)c1cccc(NC(=O)CCCC(=O)OC)c1-2` [Example 74, 4-[5-(4-Methoxycarbonyl-butyrylamino)-9,10-dioxo-9,10-dihydro-phenanthren-2-ylcarbamoyl]-butyric Acid Methyl Ester], for which the IC50 in data set [1] came to 0.8 µM; in data set [3] it was 2.6 µM; in data set [4], 3.3 µM. The CC50 in data set [2] was 19 µM.

As to `COC(=O)CCCCCCC(=O)Nc1ccc2c(c1)C(=O)C(=O)c1cccc(NC(=O)CCCCCCC(=O)OC)c1-2` [Example 75, 7-[5-(7-Methoxycarbonyl-heptanoylamino)-9,10-dioxo-9,10-dihydro-phenanthren-2-ylcarbamoyl]-heptanoic Acid Methyl Ester], the half-inhibitory concentration (IC50) in data set [1] is 0.8 µM; in data set [3] it was 2.6 µM; in data set [4] it was 10 µM. For the same compound, the CC50 in data set [2] was 13 µM.

Turning to `COC(=O)CCCCCCCCC(=O)Nc1ccc2c(c1)C(=O)C(=O)c1cccc(NC(=O)CCCCCCCCC(=O)OC)c1-2` [Example 76, 9-[5-(9-Methoxycarbonyl-nonanoylamino)-9,10-dioxo-9,10-dihydro-phenanthren-2-ylcarbamoyl]-nonanoic Acid Methyl Ester], the values for the IC50 in data set [1], in data set [3] and in data set [4] were 9.3 µM, 7 µM and more than 30 µM, respectively. In data set [2], the half-maximal cytotoxic concentration (CC50) was more than 30 µM.

For `COC(=O)CCCC(=O)Nc1ccc2c(c1)-c1ccccc1C(=O)C2=O` [Example 77, 4-(9,10-Dioxo-9,10-dihydro-phenanthren-3-ylcarbamoyl)-butyric Acid Methyl Ester], the IC50 in data set [1] amounted to 0.8 µM; in data set [3], 1.6 µM; in data set [4], 2.9 µM. Besides, the CC50 in data set [2] was 9 µM.

As to `COC(=O)CCC(=O)Nc1ccc2c(c1)C(=O)C(=O)c1ccccc1-2` [Example 80, N-(9,10-Dioxo-9,10-dihydro-phenanthren-2-yl)-succinamic Acid Methyl Ester], the IC50 stood at 5.9 µM in data set [1], 0.7 µM in data set [3] and 4.9 µM in data set [4]. Moreover, in data set [2], the CC50 is 6.5 µM.

Regarding `CC(=O)Nc1ccc2c(c1)C(=O)C(=O)c1ccccc1-2` [Example 81, N-(9,10-Dioxo-9,10-dihydro-phenanthren-2-yl)-acetamide], the IC50 in data set [1] stood at 1.2 µM; in data set [3], 0.2 µM; in data set [4], 2.5 µM. For the same compound, the CC50 in data set [2] is 0.9 µM.

As for `Nc1ccc2c(c1)C(=O)C(=O)c1cccc([N+](=O)[O-])c1-2` [Example 84, 2-amino-5-nitro-phenanthrene-9,10-dione], the IC50 in data set [1] came out at 0.8 µM; in data set [3], 0.7 µM; in data set [4], 2.6 µM. The CC50 in data set [2] was 4 µM.

For the compound `Nc1ccc2c(c1)C(=O)C(=O)c1cccc(N)c1-2` [Example 85, 2,5-diamino-phenanthrene-9,10-dione], the IC50 in data set [1] is 1.4 µM; in data set [3], 0.5 µM; in data set [4] it was 2.8 µM. The CC50 in data set [2] is 4 µM.
